Experimental data published in the supplement of paper PMC4862054.

How the values were obtained:
Conditions in all cases: incubation time: 72 h
HCC1143 = assay: normalised viability (% of control), CellTiter-Blue; higher = more viable cells (about 100 = DMSO control)
Procedure, shortened: (§1)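 Seeded at 20 µl suspension per well onto compound-loaded 384-well plates, breast cancer cell lines were incubated 72 h. CellTiter-Blue fluorescence at 560/590 nm was then read, with each plate normalised to vehicle (100) and a positive kill control (0). Normalised viability is reported at a single listed concentration of the series.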

BT-474 = assay: as above
Procedure, shortened: as §1

MDA-MB-231 [1] = assay: as above
Procedure, shortened: as §1

MDA-MB-468 [2] = assay: as above
Procedure, shortened: as §1

CAL-85-1 = assay: as above
Procedure, shortened: as §1

HCC1937 = assay: as above
Procedure, shortened: as §1

MDA-MB-436 = assay: as above
Procedure, shortened: as §1

MDA-MB-453 = assay: as above
Procedure, shortened: as §1

HDQ-P1 = assay: as above
Procedure, shortened: as §1

CAL-148 = assay: as above
Procedure, shortened: as §1

DU-4475 = assay: as above
Procedure, shortened: as §1

CAL-120 = assay: as above
Procedure, shortened: as §1

BT-549 = assay: as above
Procedure, shortened: as §1

CAL-51 = assay: as above
Procedure, shortened: as §1

Hs578T = assay: as above
Procedure, shortened: as §1

MFM-223 = assay: as above
Procedure, shortened: as §1

SK-BR-3 [3] = assay: as above
Procedure, shortened: as §1

HCC1599 [4] = assay: as above
Procedure, shortened: as §1

MDA-MB-231 [5] = assay: drug sensitivity score (DSS), CellTiter-Glo (DSS (AUC-based score)); higher = stronger drug effect (viability inhibition or cytotoxicity); extreme values may be limits of the assay
Procedure, shortened: (§2)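 Each compound occupied 5 concentrations in 10-fold steps over its own 10,000-fold range in 384-well plates, into which breast cancer cell lines were seeded as 20 µl suspension. Following 72 h of incubation, CellTox Green fluorescence (485/520 nm) was measured, and CellTiter-Glo luminescence was measured after 10 min at room temperature. Plates were individually normalised to 0.1 % DMSO and a positive kill control. From the area under the fitted dose-response curve, a drug sensitivity score was calculated.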

MDA-MB-468 [6] = assay: as above
Procedure, shortened: as §2

SK-BR-3 [7] = assay: as above
Procedure, shortened: as §2

HCC1599 [8] = assay: as above
Procedure, shortened: as §2

CC/C(=C(\c1ccccc1)c1ccc(OCCN(C)C)cc1)c1ccccc1 [Tamoxifen]
normalised viability [%]
Conditions	3 nM	10 nM	30 nM	100 nM	1000 nM	10000 nM
BT-474	–	111	–	–	117	77.5
BT-549	–	83.3	–	–	82.8	56.5
CAL-51	89.5	–	92.2	93.4	–	–
CAL-85-1	100	–	92	116	–	–
CAL-120	–	110	–	–	100	82.1
CAL-148	111	–	105	127	–	–
DU-4475	99.9	–	95.7	110	–	–
HCC1143	–	113	–	–	110	120
HCC1599 [4]	–	102	–	–	107	90
HCC1937	–	83.4	–	–	83.1	98.6
HDQ-P1	109	–	100	110	–	–
Hs578T	–	122	–	–	123	104
MDA-MB-231 [1]	–	93.1	–	–	94.6	115
MDA-MB-436	–	101	–	–	94.7	40.1
MDA-MB-453	98.4	–	85.2	103	–	–
MDA-MB-468 [2]	–	100	–	–	106	9.44
MFM-223	–	89	–	–	87.7	54.1
SK-BR-3 [3]	–	101	–	–	107	80.9

Conditions	drug sensitivity score
HCC1599 [8]	0
MDA-MB-231 [5]	0
MDA-MB-468 [6]	0
SK-BR-3 [7]	1.07

COc1cc2c(N3CCN(C(=O)Nc4ccc(OC(C)C)cc4)CC3)ncnc2cc1OCCCN1CCCCC1 [Tandutinib]
normalised viability [%]
Conditions	0.3 nM	1 nM	3 nM	10 nM	100 nM	1000 nM
BT-474	–	138	–	–	116	125
BT-549	–	108	–	–	95.2	94.1
CAL-51	110	–	101	94.2	–	–
CAL-85-1	102	–	91.2	103	–	–
CAL-120	–	110	–	–	106	114
CAL-148	100	–	102	105	–	–
DU-4475	107	–	92.9	98.1	–	–
HCC1143	–	100	–	–	118	108
HCC1599 [4]	–	99.1	–	–	121	103
HCC1937	–	101	–	–	78.2	115
HDQ-P1	105	–	95.5	109	–	–
Hs578T	–	115	–	–	116	96.2
MDA-MB-231 [1]	–	107	–	–	108	122
MDA-MB-436	–	95	–	–	81.9	112
MDA-MB-453	117	–	94.9	96.9	–	–
MDA-MB-468 [2]	–	105	–	–	118	110
MFM-223	–	104	–	–	98	113
SK-BR-3 [3]	–	111	–	–	111	114

Conditions	drug sensitivity score
HCC1599 [8]	0
MDA-MB-231 [5]	0
MDA-MB-468 [6]	0
SK-BR-3 [7]	0
